# Data as given in patent US12594263B2, “CBL inhibitors and compositions for expansion of immune cells” (Nurix Therapeutics, Inc., priority 2019, dated 2026).
# Tested on: E.G7-OVA tumors
# Assay: Oral Cbl inhibitor treatment of mice given expanded OT-1 cells
# Assay type: in vivo, mouse
# Protocol: Tumor volume was measured roughly every five days after cell transfer.
# OT-1 cells were assessed in mouse blood 5 days and 20 days after transfer.
# [1] = 5 days and 20 days after transfer (FIGS. 20A, 20B)
structure (smiles),measurement,setting,value
C[C@H]1CCCN(Cc2cc3c(c(C(F)(F)F)c2)CN(c2cccc([C@]4(c5nncn5C)C[C@@H](C)C4)c2)C3=O)C1 [Compound 116],Frequency of OT-1 cells in mouse blood,[1],increased frequency of OT-1 cells
same,Persistence of OT-1 cells in mouse blood,[1],longer persistence of OT-1 cells
same,Anti-tumor efficacy of OT-1 cells expanded with compound 103 plus IL-2 (tumor volume),oral administration (FIG. 18),enhanced the anti-tumor efficacy
same,Survival of mice treated with OT-1 cells expanded with compound 103 plus IL-2,oral administration (FIG. 19),enhanced survival
